For data set [1], the system named is rat glial cells transformed with the adenovirus E1A or E1A/E1B19K/E1B54K oncogenes. Particulars: Seto et al., 1997; cited from earlier work.
Data set [2] concerns untransformed rat glial cells. Particulars: Seto et al., 1997; cited from earlier work.
Data set [3] is described as follows: Apoptolidin-isoapoptolidin equilibrium kinetics in PBS at 37° C. (reverse-phase HPLC). The class given is physicochemical. Particulars: solution starting from the labelled isomer (Q(t) = 0 at t = 0: apoptolidin, Q(t) = ∞ at t = 0: isoapoptolidin); for k1: apoptolidin to isoapoptolidin; for k−1: isoapoptolidin to apoptolidin. The procedure:
(§1) To measure the kinetic parameters of apoptolidin and isoapoptolidin, solutions of both compounds in PBS (Dulbecco's phosphate buffered saline) were prepared and incubated at 37° C. in sealed reaction vessels. Periodically, the components present in the solutions were quantified using reverse-phase HPLC. Baseline separation was achieved using a 150×4.6 mm C18/5μ column eluting with a water/acetonitrile gradient from 40% to 90% over 30 min. After normalization for the difference in extinction coefficients (λobs=254 nm), these values were plotted and the rate constants k1 and k−1 were extracted by fitting the data to the integrated rate expression for a simple equilibrium. The kinetic parameters for apoptolidin and isoapoptolidin equilibrium over time in PBS at 37° C. The relative amounts of apoptolidin and isoapoptolidin at various time points are plotted in FIG. 2.

The test system of data set [4] is normal fibroblasts. Particulars: Seto et al., 1997; cited from earlier work.
Data set [5] in a line: Stability of solutions on storage (NMR, HPLC, UV-vis). It counts as physicochemical. Conditions: for conversion in dilute aqueous solution: ambient temperature, HPLC or UV-vis. An excerpt: To study the kinetic parameters of isoapoptolidin, the conversion between apoptolidin and isoapoptolidin under biological assay and chemical isolation conditions was observed. […] During this time, no conversion to isoapoptolidin is observed, either by NMR or HPLC. […] Given that the conversion between apoptolidin and isoapoptolidin goes in both directions, it is likely that these two compounds are in equilibrium.

Data set [6] relates to 60 human cancer cell lines (NCI 60). Conditions: of 37,000 compounds tested by the National Cancer Institute; cited from earlier work.
For data set [7], the target named is T1, mitochondrial F0F1-ATPase (Saccharomyces cerevisiae, UniProt P00830+P07251+P38077).
T1 construct: endogenous in cells; host or cells: isolated yeast mitochondria (cell-free preparation)
The experiment in a line: F0F1-ATPase inhibition assay in isolated yeast mitochondria (20 minute cell-free assay). It counts as biochemical. Particulars: for F0F1-ATPase inhibitory activity (in words): comparison. The method, then:
The ability of isoapoptolidin and the apoptolidin derivatives described in Examples 3 and 4 to inhibit F0F1-ATPase in isolated yeast mitochondria was studied. The F0F1-ATPase assay is a rapid 20 minute cell-free assay.
The functionalized macrolide and δ-lactone fragments were assayed for inhibitory activity against mitochondrial F0F1-ATPase.

The nature of data set [8]: Stability in the presence of all F0F1-ATPase assay components. Conditions: up to 24 hours. The class given is physicochemical. The method, then: To test the ability of isoapoptolidin to inhibit F0F1-ATPase activity, solutions of isoapoptolidin and apoptolidin including all assay components were analyzed for isomerization. After 20 minutes at 37° C., less than 12% conversion was detected.
To test the ability of apoptolidin derivatives to inhibit F0F1-ATPase activity, compound 16 from Table 3 was exposed to all of the assay components for up to 24 hours.

A short description of data set [9]: Stability in PBS (LC-MS). The class given is physicochemical. Conditions: conditions that promote apoptolidin/isoapoptolidin isomerization. The procedure:
as §1
This experiment leads to the conclusion that while derivatization of apoptolidin at C-20 blocks isomerization to isoapoptolidin, the resulting derivatives (compounds 18 and 20) undergo other transformations.

The nature of data set [10]: Isomerization in basic CD3OD (LCMS and NMR). The class given is physicochemical. From the text:
To prevent ring expansion, the primary alcohol may be efficiently converted to a methyl ether or benzoate ester by way of treatment with Meerwein's salt or benzoyl anhydride followed by deprotection, under this procedure, the following macrocycles resulted, respectively: Compound 23: Q^1=Q^2=Q^3=Q^4=Q^5=Q^7=H; Q^6=R^1=R^2=R^3=R^4=CH3 Compound 24: Q^1=Q^2=Q^3=Q^4=Q^5=Q^7=H; Q^6=[…]; R^1=R^2=R^3=R^4=CH3

The structures appear in SMILES notation. Read-outs that look alike come from different tables or passages of the source.

`COC[C@@H](C[C@H]1O[C@@](O)([C@H](O)[C@@H]2C[C@H](OC)[C@@H](O)CC/C=C(C)/C=C/[C@@H](O[C@@H]3O[C@@H](C)[C@H](OC)[C@@H](O)[C@@H]3O)[C@H](C)/C=C(C)/C=C(C)/C=C(\C)C(=O)O2)[C@H](C)[C@@H](O)[C@H]1C)O[C@H]1C[C@](C)(O)[C@@H](O[C@H]2C[C@@H](OC)[C@H](O)[C@@H](C)O2)[C@H](C)O1` [Apoptolidin]: the induction of apoptosis result in data set [1] is “capable of inducing apoptosis”. Besides, the cytotoxic effect entry in [2] was “no cytotoxic effect”. In [3], the Keq worked out at 0.0616, the k1 came out at 0.0656 h⁻¹ and the “k−1” value was 0.106 h⁻¹. In addition, in [4], the cytotoxic effect entry is recorded as “no cytotoxic effect”. Besides, the “conversion in dilute aqueous solution” value in data set [5] is recorded as “convert to isoapoptolidin”. Moreover, the “stable in solution (no conversion to isoapoptolidin by NMR or HPLC)” value in [5] (−20° C., dissolved in chloroform or methylene chloride) is “up to three months”. Further, in data set [6], the “rank of selectivity among cytotoxic agents” value was “among the top 0.1% most selective cytotoxic agents”. Further, in [7], it took 700 ± 500 nM to reach half-maximal inhibition (IC50).
As to `COC[C@@H](C[C@H]1O[C@@](O)([C@H](O)[C@@H]2C[C@H](OC)[C@@H](OC(C)=O)CC/C=C(C)/C=C/[C@@H](O[C@@H]3O[C@@H](C)[C@H](OC)[C@@H](O)[C@@H]3O)[C@H](C)/C=C(C)/C=C(C)/C=C(\C)C(=O)O2)[C@H](C)[C@@H](O)[C@H]1C)O[C@H]1C[C@](C)(O)[C@@H](O[C@H]2C[C@@H](OC)[C@H](O)[C@@H](C)O2)[C@H](C)O1` [Compound 16], the “hydrolysis (ESIMS)” value in data set [8] is listed as “no hydrolysis was detected”. Besides, the IC50 (commonly the concentration that gives 50% inhibition) in [7] turned out to be 800 ± 500 nM.
For `COC[C@@H](C[C@H]1O[C@@](O)([C@H](O)[C@@H]2C[C@H](OC)[C@@H](O)CC/C=C(C)/C=C/[C@@H](O[C@@H]3O[C@@H](C)[C@H](OC)[C@@H](OC(C)=O)[C@@H]3O)[C@H](C)/C=C(C)/C=C(C)/C=C(\C)C(=O)O2)[C@H](C)[C@@H](O)[C@H]1C)O[C@H]1C[C@](C)(O)[C@@H](O[C@H]2C[C@@H](OC)[C@H](O)[C@@H](C)O2)[C@H](C)O1` [Compound 17], half-maximal inhibition in data set [7] (IC50) required 400 ± 500 nM.
Turning to `COC[C@@H](C[C@H]1O[C@@](OC)([C@H](O)[C@@H]2C[C@H](OC)[C@@H](O)CC/C=C(C)/C=C/[C@@H](O[C@@H]3O[C@@H](C)[C@H](OC)[C@@H](O)[C@@H]3O)[C@H](C)/C=C(C)/C=C(C)/C=C(\C)C(=O)O2)[C@H](C)[C@@H](O)[C@H]1C)O[C@H]1C[C@](C)(O)[C@@H](O[C@H]2C[C@@H](OC)[C@H](O)[C@@H](C)O2)[C@H](C)O1` [Compound 1], inhibition in data set [7] was half-maximal at 2300 ± 500 nM (IC50).
In turn, `COC[C@@H](C[C@H]1O[C@@](O)([C@H](OC)[C@@H]2C[C@H](OC)[C@@H](O)CC/C=C(C)/C=C/[C@@H](O[C@@H]3O[C@@H](C)[C@H](OC)[C@@H](O)[C@@H]3O)[C@H](C)/C=C(C)/C=C(C)/C=C(\C)C(=O)O2)[C@H](C)[C@@H](O)[C@H]1C)O[C@H]1C[C@](C)(O)[C@@H](O[C@H]2C[C@@H](OC)[C@H](O)[C@@H](C)O2)[C@H](C)O1` [Compound 20] came in with an IC50 in data set [7] of 2800 ± 500 nM. In addition, the “stability in PBS” value in data set [9] was “partially convert to a second isomeric compound over a period of several hours”.
Take `COC[C@@H](C[C@H]1O[C@@](O)([C@H](O)[C@@H]2C[C@H](OC)[C@@H](O)CC/C=C(C)/C=C/[C@@H](O[C@@H]3O[C@@H](C)[C@H](OC)[C@@H](O)[C@@H]3O)[C@H](C)/C=C(C)/C=C(C)/C=C(\C)C(=O)O2)[C@H](C)[C@@H](OC(C)=O)[C@H]1C)O[C@H]1C[C@](C)(O)[C@@H](O[C@H]2C[C@@H](OC)[C@H](OC(C)=O)[C@@H](C)O2)[C@H](C)O1` [Compound 14]: inhibition in data set [7] was half-maximal at 400 ± 500 nM (IC50).
For `COC[C@@H](C[C@H]1O[C@@](O)([C@@H]2OC(=O)/C(C)=C/C(C)=C/C(C)=C/[C@@H](C)[C@H](O[C@@H]3O[C@@H](C)[C@H](OC)[C@@H](O)[C@@H]3O)/C=C/C(C)=C/CC[C@H](O)[C@@H](OC)C[C@@H]2O)[C@H](C)[C@@H](O)[C@H]1C)O[C@H]1C[C@](C)(O)[C@@H](O[C@H]2C[C@@H](OC)[C@H](O)[C@@H](C)O2)[C@H](C)O1` [Isoapoptolidin], in [3], the Keq is 0.638, the k1 was 0.0626 h⁻¹ and the “k−1” value is 0.0982 h⁻¹. In addition, in data set [5], the “conversion in dilute aqueous solution” value is on record as “convert to apoptolidin”. The “stable as a solution” value in [5] (−20° C., methanol) was “up to six months”. Further, in data set [7], the IC50 amounted to 17000 ± 5000 nM and the “F0F1-ATPase inhibitory activity (in words)” value is given as “reduced F0F1-ATPase inhibitory activity over apoptolidin”.
For `COC[C@@H](C[C@H]1O[C@@](O)([C@H](OC(C)=O)[C@@H]2C[C@H](OC)[C@@H](O)CC/C=C(C)/C=C/[C@@H](O[C@@H]3O[C@@H](C)[C@H](OC)[C@@H](O)[C@@H]3O)[C@H](C)/C=C(C)/C=C(C)/C=C(\C)C(=O)O2)[C@H](C)[C@@H](O)[C@H]1C)O[C@H]1C[C@](C)(O)[C@@H](O[C@H]2C[C@@H](OC)[C@H](O)[C@@H](C)O2)[C@H](C)O1` [Compound 18], the IC50 in [7] was 1100 ± 500 nM. Also, in data set [9], the “stability in PBS” value is given as “unstable under these conditions, producing several new compounds over a five hour period”.
In data set [7], `COC[C@@H](C[C@H]1O[C@@](O)([C@H](O)[C@@H]2C[C@H](OC)[C@@H](O)CC/C=C(C)/C=C/[C@@H](O[C@@H]3O[C@@H](C)[C@H](OC)[C@@H](O)[C@@H]3OC(=O)c3ccccc3)[C@H](C)/C=C(C)/C=C(C)/C=C(\C)C(=O)O2)[C@H](C)[C@@H](O)[C@H]1C)O[C@H]1C[C@](C)(O)[C@@H](O[C@H]2C[C@@H](OC)[C@H](O)[C@@H](C)O2)[C@H](C)O1` [Compound 3] showed an IC50 of 300 ± 500 nM.
In the case of `CO[C@@H]1[C@@H](O)[C@H](O)[C@H](O[C@@H]2/C=C/C(C)=C/CC[C@H](O)[C@@H](OC)C[C@@H](CO)OC(=O)/C(C)=C/C(C)=C/C(C)=C/[C@H]2C)O[C@H]1C` [Compound 22], in data set [10], the “isomerization to ring expanded isomer” value is “slowly isomerized to its ring expanded isomer”. Besides, the IC50 in [7] (Table 6, apoptolidin oxidative cleavage products, mitochondrial F0F1-ATPase, read-out: IC50) was found to be 16000 ± 5000 nM. Besides, the “F0F1-ATPase inhibitory activity (in words)” value in data set [7] is listed as “potency comparable to isoapoptolidin”.
In data set [7], `COC[C@@H](C[C@H]1O[C@@](O)([C@H](O)[C@@H]2C[C@H](OC)[C@@H](O)CC/C=C(C)/C=C/[C@@H](O[C@@H]3O[C@@H](C)[C@H](OC)[C@@H](O)[C@@H]3O)[C@H](C)/C=C(C)/C=C(C)/C=C(\C)C(=O)O2)[C@H](C)[C@@H](O)[C@H]1C)O[C@H]1C[C@](C)(O)[C@@H](O[C@H]2C[C@@H](OC)[C@H](OC(C)=O)[C@@H](C)O2)[C@H](C)O1` [Compound 15] yielded an IC50 of 800 ± 500 nM.

Values taken from patent US7151116B2, “Apoptolidin analogs and derivatives for inducing apoptosis in transformed cells” (Board of Trustees of The Leland Stanford Junior University, priority 2003, dated 2006).
